Reference: patent US11020397B2, “Compounds and their use for reducing uric acid levels” (Acquist LLC, priority 2016, dated 2021)
Read-outs that look alike come from different tables or passages of the source.

Molecular target: Xanthine oxidase (Homo sapiens (Human), UniProt P47989)
Test: Fluorescence-based xanthine oxidase activity assay
Assay type: biochemical
Details: for Xanthine oxidase inhibition, verbal rating: compared to allopurinol
[1] = unit nM, read-out: Xanthine Oxidase IC50

Xanthine oxidase, sequence (P47989 whole entry, species assumed): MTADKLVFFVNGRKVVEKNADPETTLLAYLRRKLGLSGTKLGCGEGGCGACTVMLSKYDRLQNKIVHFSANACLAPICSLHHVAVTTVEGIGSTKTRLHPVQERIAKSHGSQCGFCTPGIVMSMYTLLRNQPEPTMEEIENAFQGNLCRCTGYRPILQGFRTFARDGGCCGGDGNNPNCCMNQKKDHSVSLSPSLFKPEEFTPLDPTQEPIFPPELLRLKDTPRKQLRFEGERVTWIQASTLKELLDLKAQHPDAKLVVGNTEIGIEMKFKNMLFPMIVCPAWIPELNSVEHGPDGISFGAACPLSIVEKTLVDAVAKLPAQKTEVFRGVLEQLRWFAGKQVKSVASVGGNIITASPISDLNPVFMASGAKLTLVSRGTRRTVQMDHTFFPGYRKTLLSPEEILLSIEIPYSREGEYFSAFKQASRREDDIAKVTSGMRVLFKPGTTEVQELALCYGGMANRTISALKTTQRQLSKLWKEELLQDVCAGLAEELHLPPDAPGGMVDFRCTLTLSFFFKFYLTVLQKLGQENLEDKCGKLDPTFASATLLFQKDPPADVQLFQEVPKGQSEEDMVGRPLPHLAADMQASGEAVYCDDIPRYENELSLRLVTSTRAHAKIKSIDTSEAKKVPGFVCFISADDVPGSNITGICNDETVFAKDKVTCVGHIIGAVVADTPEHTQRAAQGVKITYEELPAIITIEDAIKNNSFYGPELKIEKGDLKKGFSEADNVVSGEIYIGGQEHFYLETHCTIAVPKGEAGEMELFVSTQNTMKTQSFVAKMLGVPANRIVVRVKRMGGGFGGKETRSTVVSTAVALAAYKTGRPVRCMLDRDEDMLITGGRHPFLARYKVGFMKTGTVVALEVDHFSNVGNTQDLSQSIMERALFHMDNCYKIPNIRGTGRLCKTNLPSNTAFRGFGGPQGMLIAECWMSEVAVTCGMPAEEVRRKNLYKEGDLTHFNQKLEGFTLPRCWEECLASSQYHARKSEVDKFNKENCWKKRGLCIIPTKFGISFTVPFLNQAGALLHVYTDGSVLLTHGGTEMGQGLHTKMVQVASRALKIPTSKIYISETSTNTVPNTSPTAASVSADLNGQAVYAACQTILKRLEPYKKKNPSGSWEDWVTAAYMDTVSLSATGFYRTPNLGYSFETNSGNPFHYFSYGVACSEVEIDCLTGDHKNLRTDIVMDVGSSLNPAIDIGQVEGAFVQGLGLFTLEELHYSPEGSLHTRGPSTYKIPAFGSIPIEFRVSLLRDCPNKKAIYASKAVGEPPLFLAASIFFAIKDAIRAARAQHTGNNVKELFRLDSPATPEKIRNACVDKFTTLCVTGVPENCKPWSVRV

Row | Compound | Xanthine oxidase inhibition, verbal rating | IC50 [1] [nM] | IC50 [nM]
1 | CC(C)Sc1nc(O)c(C(=O)Nc2ccc(-c3c[nH]nn3)cc2)c(=O)[nH]1 [Formula (IIi), N-(4-(1H-1,2,3-triazol-5-yl)phenyl)-4-hydroxy-2-(isopropylthio)-6-oxo-1,6-dihydropyrimidine-5-carboxamide] | particularly potent inhibitors of xanthine oxidase compared to allopurinol | < 20 | –
2 | CN(C)CCSc1nc(O)c(C(=O)Nc2ccc(-c3c[nH]nn3)cc2F)c(=O)[nH]1 [Formula (IIbb), 2-((2-(dimethylamino)ethyl)thio)-N-(2-fluoro-4-(1H-1,2,3-triazol-4-yl)phenyl)-4-hydroxy-6-oxo-1,6-dihydropyrimidine-5-carboxamide] | – | – | 206
3 | O=C(Nc1ccc(-c2c[nH]nn2)cc1)c1c(O)nc(SC(F)(F)F)[nH]c1=O [Formula (IIj)] | – | > 300000 | –
4 | CCSc1nc(O)c(C(=O)Nc2ccc(-c3nn[nH]n3)cc2)c(=O)[nH]1 [Formula (IIp), N-(4-(1H-tetrazol-5-yl)phenyl)-2-(ethylthio)-4-hydroxy-6-oxo-1,6-dihydropyrimidine-5-carboxamide] | particularly potent inhibitors of xanthine oxidase compared to allopurinol | – | 200
5 | CSc1nc(O)c(C(=O)Nc2ccc(-c3c[nH]nn3)cc2OC(F)(F)F)c(=O)[nH]1 [Formula (II3), N-(4-(1H-1,2,3-triazol-4-yl)-2-(trifluoromethoxy)phenyl)-4-hydroxy-2-(methylthio)-6-oxo-1,6-dihydropyrimidine-5-carboxamide] | – | – | 60
6 | CSc1nc(O)c(C(=O)Nc2c(F)cc(-c3c[nH]nn3)cc2F)c(=O)[nH]1 [Formula (IIt), N-(2,6-Difluoro-4-(1H-1,2,3-triazol-4-yl)phenyl)-4-hydroxy-2-(methylthio)-6-oxo-1,6-dihydropyrimidine-5-carboxamide] | particularly potent inhibitors of xanthine oxidase compared to allopurinol | – | 180
7 | CSc1nc(O)c(C(=O)Nc2ncc(-c3c[nH]nn3)cc2C(F)(F)F)c(=O)[nH]1 [Formula (II8), N-(5-(1H-1,2,3-triazol-4-yl)-3-(trifluoromethyl)pyridin-2-yl)-4-hydroxy-2-(methylthio)-6-oxo-1,6-dihydropyrimidine-5-carboxamide] | – | – | 60
8 | CSc1nc(O)c(C(=O)Nc2ccc(-c3c[nH]nn3)c(F)c2F)c(=O)[nH]1 [Formula (IIaa), N-(2,3-difluoro-4-(1H-1,2,3-triazol-4-yl)phenyl)-4,6-dihydroxy-2-(methylthio) pyrimidine-5-carboxamide] | – | – | 103
9 | CC(C)Sc1nc(O)c(C(=O)Nc2ccc(-c3c[nH]nn3)cc2F)c(=O)[nH]1 [Formula (IIv), N-(2-Fluoro-4-(1H-1,2,3-triazol-4-yl)phenyl)-4-hydroxy-2-(isopropylthio)-6-oxo-1,6-dihydropyrimidine-5-carboxamide] | – | – | 100
10 | CSc1nc(O)c(C(=O)Nc2ccc(-c3c[nH]nn3)cc2F)c(=O)[nH]1 [Formula (IIs), N-(2-Fluoro-4-(1H-1,2,3-triazol-4-yl)phenyl)-4-hydroxy-2-(methylthio)-6-oxo-1,6-dihydropyrimidine-5-carboxamide] | particularly potent inhibitors of xanthine oxidase compared to allopurinol | – | 120
11 | CC(C)Sc1nc(O)c(C(=O)Nc2ccc(-c3c[nH]nn3)cc2C(F)(F)F)c(=O)[nH]1 [Formula (II7), N-(4-(1H-1,2,3-Triazol-5-yl)-2-(trifluoromethyl)phenyl)-4-hydroxy-2-(isopropyl-thio)-6-oxo-1,6-dihydropyrimidine-5-carboxamide] | – | – | 70
12 | CSc1nc(O)c(C(=O)Nc2ccc(-c3c[nH]nn3)nc2)c(=O)[nH]1 [Formula (IIii), N-(6-(1H-1,2,3-triazol-4-yl)pyridin-3-yl)-4-hydroxy-2-(methylthio)-6-oxo-1,6-dihydropyrimidine-5-carboxamide] | particularly potent inhibitors of xanthine oxidase compared to allopurinol | – | 377
13 | CSc1nc(O)c(C(=O)Nc2ccc3nc(-c4c[nH]nn4)ccc3c2)c(=O)[nH]1 [Formula (II10), N-(2-(1H-1,2,3-triazol-4-yl)quinolin-6-yl)-4-hydroxy-2-(methylthio)-6-oxo-1,6-dihydropyrimidine-5-carboxamide] | – | – | 190
14 | CC(C)CSc1nc(O)c(C(=O)Nc2ccc(-c3c[nH]nn3)cc2)c(=O)[nH]1 [Formula (IIq), N-(4-(1H-1,2,3-triazol-4-yl)phenyl)-4-hydroxy-2-(isobutylthio)-6-oxo-1,6-dihydropyrimidine-5-carboxamide] | particularly potent inhibitors of xanthine oxidase compared to allopurinol | – | 40
15 | CSc1nc(O)c(C(=O)Nc2ccc(-c3c[nH]nn3)cc2OC(F)F)c(=O)[nH]1 [Formula (II4), N-(2-(difluoromethoxy)-4-(1H-1,2,3-triazol-4-yl)phenyl)-4-hydroxy-2-(methylthio)-6-oxo-1,6-dihydropyrimidine-5-carboxamide] | – | – | 60
16 | O=C(Nc1ccc(-c2c[nH]nn2)cc1)c1c(O)nc(SCC2CC2)[nH]c1=O [Formula (IIo), N-(4-(1H-1,2,3-triazol-4-yl)phenyl)-2-((cyclopropylmethyl)thio)-4,6-dioxo-1,4,5,6-tetrahydropyrimidine-5-carboxamide] | – | – | 1140
17 | CC(C)Sc1nc(O)c(C(=O)Nc2ccc(-c3c[nH]nn3)c(F)c2)c(=O)[nH]1 [Formula (IIw), N-(3-Fluoro-4-(1H-1,2,3-triazol-4-yl)phenyl)-4-hydroxy-2-(isopropylthio)-6-oxo-1,6-dihydropyrimidine-5-carboxamide] | – | – | 660
18 | CCSc1nc(O)c(C(=O)Nc2ccc(-c3c[nH]nn3)cc2)c(=O)[nH]1 [Formula (IIl), N-(4-(1H-1,2,3-triazol-4-yl)phenyl)-2-(ethylthio)-4-hydroxy-6-oxo-1,6-dihydropyrimidine-5-carboxamide] | particularly potent inhibitors of xanthine oxidase compared to allopurinol | < 20 | –
19 | CSc1nc(O)c(C(=O)Nc2ccc(-c3c[nH]nn3)c(F)c2)c(=O)[nH]1 [Formula (IIr), N-(3-Fluoro-4-(1H-1,2,3-triazol-4-yl)phenyl)-4-hydroxy-2-(methylthio)-6-oxo-1,6-dihydropyrimidine-5-carboxamide] | particularly potent inhibitors of xanthine oxidase compared to allopurinol | – | 210
20 | CSc1nc(O)c(C(=O)Nc2ccc(-c3c[nH]nn3)cc2C#N)c(=O)[nH]1 [Formula (II5), N-(2-cyano-4-(1H-1,2,3-triazol-4-yl)phenyl)-4-hydroxy-2-(methylthio)-6-oxo-1,6-dihydropyrimidine-5-carboxamide] | – | – | 40
21 | O=C(Nc1ncc(-c2c[nH]nn2)s1)c1c(O)[nH]c(=O)[nH]c1=O [Formula (Io), N-(5-(1H-1,2,3-Triazol-4-yl)thiazol-2-yl)-2,4,6-trihydroxypyrimidine-5-carboxamide] | – | – | 5300
22 | CSc1nc(O)c(C(=O)Nc2ccc(-c3c[nH]nn3)c(C(F)(F)F)c2)c(=O)[nH]1 [Formula (II6), N-(4-(1H-1,2,3-Triazol-4-yl)-3-(trifluoromethyl)phenyl)-4-hydroxy-2-(methylthio)-6-oxo-1,6-dihydropyrimidine-5-carboxamide] | – | > 10000 | –
